Laboratory results taken from publication PMC5218480 (PLoS ONE, 2017).

Tested on: MV-4-11 cells
Test: Gene expression microarray analysis (Affymetrix PrimeView) and GSEA
Format: cell-based, human
Design: RFU PODN (11730768_x_at) / Fold change /veh PODN (11730768_x_at) / RFU LINC00158 (11744669_a_at) / Fold change /veh LINC00158 (11744669_a_at) / RFU DUSP10 (11751237_a_at) / Fold change /veh DUSP10 (11751237_a_at) / RFU ID3 (11757404_x_at) / Fold change /veh ID3 (11757404_x_at) / RFU PLEKHG5 (11737974_s_at) / Fold change /veh PLEKHG5 (11737974_s_at) / RFU LRRC4B (11730491_at) / Fold change /veh LRRC4B (11730491_at) / RFU GIMAP4 (11747438_a_at) / Fold change /veh GIMAP4 (11747438_a_at) / RFU KRT8 (11758183_x_at) / Fold change /veh KRT8 (11758183_x_at) / RFU CNN1 (11734310_a_at) / Fold change /veh CNN1 (11734310_a_at) / RFU VPS37D (11726825_at) / Fold change /veh VPS37D (11726825_at) / RFU C10orf10 (11716522_x_at) / Fold change /veh C10orf10 (11716522_x_at) / RFU KIR2DL2 /// KIR2DL4 /// KIR2DL5A /// KIR2DL5B /// KIR2DS1 /// KIR2DS2 /// KIR2DS3 /// KIR2DS4 /// KIR3DL3 /// KIR3DL3 /// KIR3DS1 (11738374_at) / Fold change /veh KIR2DL2 /// KIR2DL4 /// KIR2DL5A /// KIR2DL5B /// KIR2DS1 /// KIR2DS2 /// KIR2DS3 /// KIR2DS4 /// KIR3DL3 /// KIR3DL3 /// KIR3DS1 (11738374_at) / RFU C1QL1 (11718748_at) / Fold change /veh C1QL1 (11718748_at) / RFU TMPRSS4 (11747572_a_at) / Fold change /veh TMPRSS4 (11747572_a_at) / RFU HAMP (11756126_x_at) / Fold change /veh HAMP (11756126_x_at) / RFU RNFT2 (11725882_a_at) / Fold change /veh RNFT2 (11725882_a_at) / RFU NR4A2 (11747474_a_at) / Fold change /veh NR4A2 (11747474_a_at) / RFU ABCC12 (11746883_a_at) / Fold change /veh ABCC12 (11746883_a_at) / RFU TMEM136 (11760407_x_at) / Fold change /veh TMEM136 (11760407_x_at) / RFU CLDN22 /// WWC2 (11732394_at) / Fold change /veh CLDN22 /// WWC2 (11732394_at) / RFU HLA-DPB1 (11760878_x_at) / Fold change /veh HLA-DPB1 (11760878_x_at) / RFU SPINT1 (11716480_a_at) / Fold change /veh SPINT1 (11716480_a_at) / RFU GAP43 (11754022_s_at) / Fold change /veh GAP43 (11754022_s_at) / RFU A4GNT (11735810_at) / Fold change /veh A4GNT (11735810_at) / RFU PRB3 (11715151_x_at) / Fold change /veh PRB3 (11715151_x_at) / RFU TUBB4B (11761932_at) / Fold change /veh TUBB4B (11761932_at) / RFU CAPN14 (11732068_a_at) / Fold change /veh CAPN14 (11732068_a_at) / RFU TMCC2 (11721928_a_at) / Fold change /veh TMCC2 (11721928_a_at) / RFU IRGQ (11745062_a_at) / Fold change /veh IRGQ (11745062_a_at) / RFU FAM174B (11720279_a_at) / Fold change /veh FAM174B (11720279_a_at) / RFU TMPRSS4 (11748680_a_at) / Fold change /veh TMPRSS4 (11748680_a_at) / RFU FAM212B (11763350_a_at) / Fold change /veh FAM212B (11763350_a_at) / RFU PLEKHG5 (11743358_a_at) / Fold change /veh PLEKHG5 (11743358_a_at) / RFU ZSCAN30 (11745921_a_at) / Fold change /veh ZSCAN30 (11745921_a_at) / RFU CMKLR1 (11741424_a_at) / Fold change /veh CMKLR1 (11741424_a_at) / RFU LOC101060620 /// MAPK8IP1 (11723275_at) / Fold change /veh LOC101060620 /// MAPK8IP1 (11723275_at) / RFU SPTSSB (11747773_x_at) / Fold change /veh SPTSSB (11747773_x_at) / RFU PRSS12 (11739890_at) / Fold change /veh PRSS12 (11739890_at) / RFU BIN1 (11741810_x_at) / Fold change /veh BIN1 (11741810_x_at) / RFU WNT11 (11732464_a_at) / Fold change /veh WNT11 (11732464_a_at) / RFU C10orf10 (11716521_a_at) / Fold change /veh C10orf10 (11716521_a_at) / RFU C5orf56 (11738089_at) / Fold change /veh C5orf56 (11738089_at) / RFU CYB561 (11721691_x_at) / Fold change /veh CYB561 (11721691_x_at) / RFU ANKRD19P (11752326_a_at) / Fold change /veh ANKRD19P (11752326_a_at) / RFU OR2T12 /// OR2T33 /// OR2T8 (11738714_s_at) / Fold change /veh OR2T12 /// OR2T33 /// OR2T8 (11738714_s_at) / RFU VCAN (11748164_a_at) / Fold change /veh VCAN (11748164_a_at) / RFU JSRP1 (11732532_at) / Fold change /veh JSRP1 (11732532_at) / RFU KRTAP10-11 (11738290_x_at) / Fold change /veh KRTAP10-11 (11738290_x_at) / RFU MYO3A (11730013_a_at) / Fold change /veh MYO3A (11730013_a_at) / RFU EBF3 (11725865_a_at) / Fold change /veh EBF3 (11725865_a_at) / RFU CAMK2N1 (11719241_x_at) / Fold change /veh CAMK2N1 (11719241_x_at) / RFU C5orf56 (11738088_a_at) / Fold change /veh C5orf56 (11738088_a_at) / RFU OLFML3 (11715873_a_at) / Fold change /veh OLFML3 (11715873_a_at) / RFU LOC100653217 /// NTM (11731650_a_at) / Fold change /veh LOC100653217 /// NTM (11731650_a_at) / RFU MAPK11 (11762145_a_at) / Fold change /veh MAPK11 (11762145_a_at) / RFU FIZ1 (11724087_x_at) / Fold change /veh FIZ1 (11724087_x_at) / RFU OASL (11726364_x_at) / Fold change /veh OASL (11726364_x_at) / RFU SOX15 (11748057_x_at) / Fold change /veh SOX15 (11748057_x_at) / RFU CD79A (11719716_a_at) / Fold change /veh CD79A (11719716_a_at) / RFU HIST1H1D (11736915_at) / Fold change /veh HIST1H1D (11736915_at) / RFU CASKIN2 (11723855_a_at) / Fold change /veh CASKIN2 (11723855_a_at) / RFU LOC730098 (11760151_x_at) / Fold change /veh LOC730098 (11760151_x_at) / RFU OR4N2 (11742367_at) / Fold change /veh OR4N2 (11742367_at) / RFU PRRT2 (11749266_a_at) / Fold change /veh PRRT2 (11749266_a_at) / RFU SNX32 (11753110_a_at) / Fold change /veh SNX32 (11753110_a_at) / RFU CDHR5 (11726645_a_at) / Fold change /veh CDHR5 (11726645_a_at) / RFU RCAN1 (11760418_a_at) / Fold change /veh RCAN1 (11760418_a_at) / RFU FAM167A (11723789_a_at) / Fold change /veh FAM167A (11723789_a_at) / RFU FAM26E (11764081_at) / Fold change /veh FAM26E (11764081_at) / RFU ISYNA1 (11749810_s_at) / Fold change /veh ISYNA1 (11749810_s_at) / RFU ACY1 (11761880_at) / Fold change /veh ACY1 (11761880_at) / RFU 11764098_at / Fold change /veh 11764098_at / RFU SAMD14 (11745864_x_at) / Fold change /veh SAMD14 (11745864_x_at) / RFU NPB (11741838_a_at) / Fold change /veh NPB (11741838_a_at) / RFU TMPRSS6 (11731388_a_at) / Fold change /veh TMPRSS6 (11731388_a_at) / RFU KRTAP10-2 (11738614_at) / Fold change /veh KRTAP10-2 (11738614_at) / RFU ARHGAP8 /// PRR5-ARHGAP8 (11727945_x_at) / Fold change /veh ARHGAP8 /// PRR5-ARHGAP8 (11727945_x_at) / RFU KRTAP5-7 /// NADSYN1 (11734609_at) / Fold change /veh KRTAP5-7 /// NADSYN1 (11734609_at) / RFU RASL12 (11751679_a_at) / Fold change /veh RASL12 (11751679_a_at) / RFU CDKN2B (11736163_a_at) / Fold change /veh CDKN2B (11736163_a_at) / RFU PRF1 (11729649_at) / Fold change /veh PRF1 (11729649_at) / RFU, ZNF638 /// ZNF638-IT1 / Fold change vs veh, ZNF638 /// ZNF638-IT1 / RFU, PANK3 / Fold change vs veh, PANK3 / RFU, SH3YL1 / Fold change vs veh, SH3YL1 / RFU, ZEB2 / Fold change vs veh, ZEB2 / RFU, NRIP1 / Fold change vs veh, NRIP1 / RFU, PTTG1IP / Fold change vs veh, PTTG1IP / RFU, CAPN2 / Fold change vs veh, CAPN2 / RFU, MED14 / Fold change vs veh, MED14 / RFU, SNORA58 / Fold change vs veh, SNORA58 / RFU, C1orf63 / Fold change vs veh, C1orf63 / RFU, LRRFIP1 / Fold change vs veh, LRRFIP1 / RFU, NDUFAF7 / Fold change vs veh, NDUFAF7 / RFU, SLC12A2 / Fold change vs veh, SLC12A2 / RFU, IBTK / Fold change vs veh, IBTK / RFU, ESF1 / Fold change vs veh, ESF1 / Fold change vs veh, TMEM50B / RFU, TAOK1 / Fold change vs veh, TAOK1 / RFU, ACBD3 / Fold change vs veh, ACBD3 / RFU, TMA16 / Fold change vs veh, TMA16 / RFU, RWDD3 / Fold change vs veh, RWDD3 / RFU, BCAT1 / Fold change vs veh, BCAT1 / RFU, EDEM3 / Fold change vs veh, EDEM3 / RFU, TMEM33 / Fold change vs veh, TMEM33 / RFU, WDR75 / Fold change vs veh, WDR75 / RFU, AHCTF1 / Fold change vs veh, AHCTF1 / RFU, TFRC / Fold change vs veh, TFRC / RFU, ZDHHC17 / Fold change vs veh, ZDHHC17 / RFU, NOM1 / Fold change vs veh, NOM1 / RFU, ARL8B / Fold change vs veh, ARL8B / RFU, ZBTB11 / Fold change vs veh, ZBTB11 / RFU, TAMM41 / Fold change vs veh, TAMM41 / RFU, KIAA1704 /// LOC100996395 / Fold change vs veh, KIAA1704 /// LOC100996395 / RFU, ING1 / Fold change vs veh, ING1 / RFU, TRMT61B / Fold change vs veh, TRMT61B / RFU, FUBP3 / Fold change vs veh, FUBP3 / RFU, TP53 / Fold change vs veh, TP53 / RFU, TNKS2 / Fold change vs veh, TNKS2 / RFU, ZFP14 / Fold change vs veh, ZFP14 / RFU, ACTR2 / Fold change vs veh, ACTR2 / RFU, PPP3R1 / Fold change vs veh, PPP3R1 / RFU, PIK3R1 / Fold change vs veh, PIK3R1 / RFU, HNRNPA1 / Fold change vs veh, HNRNPA1 / RFU, RNF170 / Fold change vs veh, RNF170 / RFU, ZNF28 / Fold change vs veh, ZNF28 / RFU, RNGTT / Fold change vs veh, RNGTT / RFU, OGT / Fold change vs veh, OGT / RFU, BRD1 / Fold change vs veh, BRD1 / RFU, MARS / Fold change vs veh, MARS / RFU, ZNF655 / Fold change vs veh, ZNF655 / RFU, FAHD1 / Fold change vs veh, FAHD1 / RFU, BDP1 / Fold change vs veh, BDP1 / RFU, LRRCC1 / Fold change vs veh, LRRCC1 / RFU, ARID1A / Fold change vs veh, ARID1A / RFU, ZNF146 / Fold change vs veh, ZNF146 / RFU, ZNF330 / Fold change vs veh, ZNF330 / RFU, GPN3 / Fold change vs veh, GPN3 / RFU, C9orf123 / Fold change vs veh, C9orf123 / RFU, N4BP2L2 / Fold change vs veh, N4BP2L2 / RFU, ARFIP1 / Fold change vs veh, ARFIP1 / RFU, FAM179B / Fold change vs veh, FAM179B / RFU, BCL10 / Fold change vs veh, BCL10 / RFU, UHRF1BP1L / Fold change vs veh, UHRF1BP1L / RFU, BET1 / Fold change vs veh, BET1 / RFU, CNOT2 / Fold change vs veh, CNOT2 / RFU, ZNF268 / Fold change vs veh, ZNF268 / Fold change vs veh, ZNF507 / RFU, DGCR2 / Fold change vs veh, DGCR2 / RFU, WDSUB1 / Fold change vs veh, WDSUB1 / Fold change vs veh, HSP90B1 /// MIR3652 / RFU, ADSS / Fold change vs veh, ADSS / RFU, GK / Fold change vs veh, GK / RFU, ZNF148 / Fold change vs veh, ZNF148 / RFU, TAF9 / Fold change vs veh, TAF9 / RFU, SLC1A5 / Fold change vs veh, SLC1A5 / RFU, SLMO2 / Fold change vs veh, SLMO2 / RFU, ABCC4 / Fold change vs veh, ABCC4 / RFU, LOC101060439 /// RAP1B / Fold change vs veh, LOC101060439 /// RAP1B / RFU, RFX7 / Fold change vs veh, RFX7 / RFU, GTPBP10 / Fold change vs veh, GTPBP10 / RFU, CNEP1R1 / Fold change vs veh, CNEP1R1 / RFU, BIVM-ERCC5 /// ERCC5 / Fold change vs veh, BIVM-ERCC5 /// ERCC5 / RFU, ILF3 / Fold change vs veh, ILF3 / RFU 11762660_at / Fold change /veh 11762660_at / RFU VCAN (11757783_s_at) / Fold change /veh VCAN (11757783_s_at) / RFU DDX43 (11728927_at) / Fold change /veh DDX43 (11728927_at) / RFU KRT8 (11758188_x_at) / Fold change /veh KRT8 (11758188_x_at) / RFU NKD1 (11759106_at) / Fold change /veh NKD1 (11759106_at) / RFU SRD5A1 (11742802_a_at) / Fold change /veh SRD5A1 (11742802_a_at) / RFU TPSAB1 /// TPSB2 (11721975_s_at) / Fold change /veh TPSAB1 /// TPSB2 (11721975_s_at) / RFU GSTM3 (11746129_a_at) / Fold change /veh GSTM3 (11746129_a_at) / RFU IL23R (11737362_x_at) / Fold change /veh IL23R (11737362_x_at) / RFU TMEM51 (11727254_a_at) / Fold change /veh TMEM51 (11727254_a_at) / RFU PIWIL2 (11732686_x_at) / Fold change /veh PIWIL2 (11732686_x_at) / RFU ORM1 (11744905_x_at) / Fold change /veh ORM1 (11744905_x_at) / RFU CCDC152 (11743942_at) / Fold change /veh CCDC152 (11743942_at) / RFU ECM1 (11717891_a_at) / Fold change /veh ECM1 (11717891_a_at) / RFU IL23R (11748794_a_at) / Fold change /veh IL23R (11748794_a_at) / RFU TNFAIP8L3 (11732012_x_at) / Fold change /veh TNFAIP8L3 (11732012_x_at) / RFU MBOAT4 (11741988_at) / Fold change /veh MBOAT4 (11741988_at) / RFU 11764193_at / Fold change /veh 11764193_at / RFU TMEM53 (11763286_at) / Fold change /veh TMEM53 (11763286_at) / RFU MAGEB2 (11727129_at) / Fold change /veh MAGEB2 (11727129_at) / RFU TMEM200A (11744735_a_at) / Fold change /veh TMEM200A (11744735_a_at) / RFU CCDC152 (11751479_a_at) / Fold change /veh CCDC152 (11751479_a_at) / RFU FAM211A (11726209_a_at) / Fold change /veh FAM211A (11726209_a_at) / RFU RGS16 (11746705_a_at) / Fold change /veh RGS16 (11746705_a_at) / RFU VCAN (11755009_s_at) / Fold change /veh VCAN (11755009_s_at) / RFU RHOB (11743442_s_at) / Fold change /veh RHOB (11743442_s_at) / RFU RGS16 (11720943_a_at) / Fold change /veh RGS16 (11720943_a_at) / RFU RGS16 (11720944_at) / Fold change /veh RGS16 (11720944_at) / RFU, VPS4B / Fold change vs veh, VPS4B / RFU, CREB1 / Fold change vs veh, CREB1 / RFU, DNAJC13 / Fold change vs veh, DNAJC13 / RFU, GNAQ / Fold change vs veh, GNAQ / RFU, CDK5R1 / Fold change vs veh, CDK5R1 / RFU, ZRANB3 / Fold change vs veh, ZRANB3 / RFU, CUL4A / Fold change vs veh, CUL4A / RFU, CCNY / Fold change vs veh, CCNY / RFU, UFL1 / Fold change vs veh, UFL1 / RFU, COG3 / Fold change vs veh, COG3 / RFU, DIAPH2 / Fold change vs veh, DIAPH2 / RFU, SKA2 / Fold change vs veh, SKA2 / RFU, AFF3 / Fold change vs veh, AFF3 / RFU, LMF1 / Fold change vs veh, LMF1 / RFU, IPO11 / Fold change vs veh, IPO11 / RFU, DFFB / Fold change vs veh, DFFB / RFU, FOXP1 / Fold change vs veh, FOXP1 / RFU, CARD8 / Fold change vs veh, CARD8 / RFU, STRN3 / Fold change vs veh, STRN3 / RFU, ADK / Fold change vs veh, ADK / RFU, RASSF2 / Fold change vs veh, RASSF2 / RFU, WIPF1 / Fold change vs veh, WIPF1 / RFU, LARP1B / Fold change vs veh, LARP1B / RFU, RASA1 / Fold change vs veh, RASA1 / RFU, RB1 / Fold change vs veh, RB1 / RFU, PPFIA1 / Fold change vs veh, PPFIA1 / RFU, MAT2A / Fold change vs veh, MAT2A / RFU, CCT5 / Fold change vs veh, CCT5 / RFU, WDR92 / Fold change vs veh, WDR92 / RFU, CUX1 / Fold change vs veh, CUX1 / RFU, TTC7A / Fold change vs veh, TTC7A / RFU, TMEM135 / Fold change vs veh, TMEM135 / RFU, DEPTOR / Fold change vs veh, DEPTOR / RFU, CPM / Fold change vs veh, CPM / RFU, DNAJB6 / Fold change vs veh, DNAJB6 / RFU, CACNA2D3 / Fold change vs veh, CACNA2D3 / RFU, DTX4 / Fold change vs veh, DTX4 / RFU, TFCP2 / Fold change vs veh, TFCP2 / RFU, GMCL1 /// GMCL1P1 / Fold change vs veh, GMCL1 /// GMCL1P1 / RFU, AEBP2 / Fold change vs veh, AEBP2 / RFU, SNHG1 /// SNORD22 /// SNORD25 /// SNORD26 /// SNORD27 /// SNORD28 /// SNORD29 /// SNORD31 / Fold change vs veh, SNHG1 /// SNORD22 /// SNORD25 /// SNORD26 /// SNORD27 /// SNORD28 /// SNORD29 /// SNORD31 / Fold change (Aza/veh), C12orf56 (ProbeSet 11735607_a_at) / Fold change (ACY-1035/veh), C12orf56 (ProbeSet 11735607_a_at) / Fold change (Aza/veh), FGFR1OP (ProbeSet 11751329_s_at) / Fold change (ACY-1035/veh), FGFR1OP (ProbeSet 11751329_s_at) / Fold change (Aza/veh), VPS36 (ProbeSet 11739960_a_at) / Fold change (ACY-1035/veh), VPS36 (ProbeSet 11739960_a_at) / RFU SYPL1 (11715823_x_at) / Fold change /veh SYPL1 (11715823_x_at) / RFU IGFBP7 (11715501_s_at) / Fold change /veh IGFBP7 (11715501_s_at) / RFU REEP3 (11722064_at) / Fold change /veh REEP3 (11722064_at) / RFU IGLL1 (11728026_x_at) / Fold change /veh IGLL1 (11728026_x_at): dose or concentration left out as unconfirmed
Conditions: MV-4-11 cells, 48 hours

Nc1ncn([C@@H]2O[C@H](CO)[C@@H](O)[C@H]2O)c(=O)n1 [azacitidine] was tested, and the “RFU CMKLR1 (11741424_a_at)” value was 16.54 RFU.
